Here are results for one compound from patent US20050053625A1, “Method of treating viral infections” (priority 2001, published 2005).

Data set [1] has as its system 2.2.15 cells. Kind of data set: Selectivity index (CC90/IC90), MHBs secretion and MTT on 2.2.15 cells. Format: cell-based. The source says: Selectivity index and cytotoxicity assessment. The concentration of compound needed to reduce the amount of MHBs present in the culture medium (of MHBs producing cells) by 90%, relative to untreated or placebo treated controls will be considered to be the IC90 (inhibitory concentration, 90). The toxicity of the compounds to the tissue cultures will initially be determined the MTT assay, as described in (Lu et al., 1997). Briefly, the amount of MTT enzyme functional in the same sets of cells used for determination of the ability of a compound to reduce the secretion of MHBs (see above) will be measured. Thus, the impact of a compound upon cell viability will be assessed in the same cells in which MHBs reductions have been determined. The concentration of compound that results in a reduction of MTT activity (compared to untreated cultures) of 90% will be considered to be the CC90. The selectivity index will be expressed as the CC90 divided by the IC90. Using these criteria, as determined by assays on 2.2.15 cells under the conditions described in prelim. evidence, the selectivity index of NNDNJ is approximate 100. Thus, compounds will be considered attractive if they have a selectivity index of greater than 100.

In data set [2] the test system is HBV M protein. It counts as cell-based. How it is done:
Hep G2 cells were transfected with an M only expression vector and the next day the cells divided equally into 6 well trays. Compound was added one day latter at the indicated concentrations and the media changed every two days. The presence of sub-viral particles in the medium was detected via the Abbott Diagnostics Auszyme Monoclonal Diagnostic Kit as per manufacture's directions. For Graph: Y-axis is the OD at 492. X-axis indicates the compounds or cells used in the assay.
Hep G2 cells transfected with the HBV M expression vector were treated with the glucosidase inhibitor NB-DNJ (4.5 mM and 6 days latter the amount of M protein associated with the culture medium (secreted) and the cells (retained) determined by ELISA. See text for more details. For graph: x-axis, Drug treatment and location of protein; for y-axis, % of HBV M protein as compared to untreated
Hep G2 cells were transfected with the M only expression vector and seeded as daughter flasks into 6 well trays. Following 4 days of treatment of glucosidase inhibitor (NB-DNJ (4.5 mM)), drug was either removed (in samples labels as —R) or left on as a control. Day 0 is the time in which drug was removed. […] Day 3 and Day 5 are days after drug removal. For Graph: Y-axis is the OD at 492. X-axis indicates the compounds or cells used in the assay. UN=untreated sample; Un-R is the untreated rebound sample; NB=N-butyl-DNJ; NB-R=N-butyl-DNJ rebound sample.
HBV M protein secretion is sensitive to glucosidase inhibition. Our previous work has determined that the secretion of HBV sub-viral particles containing the M protein was sensitive to glucosidase inhibition. (Mehta et al., 1997). That is, when Hep G2 2.215 cells were treated with the glucosidase inhibitor NB-DNJ, purified sub-viral particles appeared to lack the M protein. However, it was unclear if this was the result of the M protein's sensitivity to glucosidase inhibition or required some other viral factor. To test this hypothesis, an expression vector (pCMV-MS^−X) directs the expression of HBV M, but no other viral protein, was created. This “M only” expression vector was then used to determine if the M protein itself, in the absence of other viral functions, was sensitive to glucosidase inhibition. In addition, an expression vector, unable to express “M”, but able to express “S” was made on the same plasmid backbone as the “M” only vector, as was used as a control (pCMV-M^−SX). For these studies three imino sugars were used: N-butyl-DNJ, N-nonyl-DNJ and N-nonyl-DGJ. N-butyl-DNJ is our standard glucosidase inhibitor and has been used by several labs for over 10 years (Carlson et al.,1995, Block et al., 1994). […] Briefly, Hep G2 cells were transfected with the expression vectors pCMV HBV MS^−X and pCMV HBV M^−SX and subsequently seeded into fresh 6 well trays. The transfected cells were treated with the indicated concentrations of NB-DNJ, NN-DNJ or NN-DGJ (as a negative control) and three days latter the media analyzed for the presence of the HBV M or HBV S protein as described in Mehta et al, 2001. […] Fore example, concentrations of NN-DNJ which have no impact upon glycan inhibition, as determined by glycan analysis or α-1-acid-glycoprotein secretion, had no effect upon HBV M protein secretion (data not shown). In contrast to the effect of the glucosidase inhibitors on M protein secretion, the secretion of the HBV S protein was insensitive to either NB-DNJ or NN-DNJ providing further proof that the S protein is insensitive to glucosidase inhibition (data not shown; Block et al., 1994, Mehta et al., 1997, Werr & Prange, 1998). To determine if the secretion of the HBV M protein was prevented by another non-glucosidase mechanism, other compounds with the same alkyl side chain (tail) but altered imino sugar head groups, were synthesized. For example, NN-DGJ has the same chain length as NN-DNJ but is not a glucosidase inhibitor. […]

The conditions of data set [3]: rat, in vivo. How it is done:
Based upon the toxicology data obtained from a 14 day rat study on N-nonyl-DNJ, the toxicity with the alkovirs is predicated to be minimal. With N-nonyl-DNJ, toxicity primarily consisted of GI upset as a result of inhibiting the gut α-glucosidase enzymes involved in carbohydrate digestion. It should be noted that even though toxicity was observed, the maximum tolerated dose was determined to be 250 mg/kg bid. This was well above the amount required to achieve serum drug concentrations that were anti-viral.

Details of data set [4]: species or system dogs. The settings on record: dog, in vivo. The protocol:
Determination of the best glucosidase inhibitor and analysis of glucosidase inhibition. Although our work, confirmed by others, has shown that efficient secretion of the HBV glycoprotein MHBs and LHBs requires the function of the ER glucosidase, the specific glucosidase inhibitor that would be most sensible to use in vivo studies is not entirely obvious. […] However, NNDNJ has a dose limiting toxicity in dogs. Although this occurred at very high doses (more than 250 mg/kg), and we believe the toxicity was unrelated to the glucosidase inhibition mechanism), it seems wise to explore the possibility of alternative glucosidase inhibitors for the proposed study. Thus, Aim 1 will be to explore the possibility that other compounds, with less toxicity can be found. […] It is therefore an attractive back up compound. Thus, although NNDNJ could be used in the proposed studies as a “stalking horse” and for a proof of concept, it will be “parked” (held in reserve) as we test other glucosidase inhibitors in our portfolio. Identification of the most appropriate glucosidase inhibitor

For data set [5], the system named is glucosidase. The data set can be described thus: Glucosidase / glycan processing inhibition in cells. Format: cell-based. The settings on record: 10 μg/ml.
Data set [6] concerns glucosidase. The note with it: cited from earlier work.
Data set [7] relates to liver cells. The settings on record: cited from earlier work.

For the compound `CCCCCCCCCN1C[C@H](O)[C@@H](O)[C@H](O)[C@H]1CO` [NN-DNJ, 1,5-dideoxy-1,5-nonylylimino-D-glucitol], the “selectivity index (CC90 divided by IC90)” value in data set [1] is ~100. Also, the “amount of M protein in the culture medium” value in data set [2] (10 μg/ml) is recorded as “almost undetectable levels”. Also, the “HBV M protein secretion at concentrations with no impact upon glycan inhibition” value in data set [2] (concentrations which have no impact upon glycan inhibition, data not shown) is given as “no effect”. Also, the “secretion of the M protein” value in data set [2] (indicated concentrations, three days, FIG. 4) is “prevented the secretion of the M protein”. For the same compound, in data set [3], the maximum tolerated dose is given as 250 mg/kg bid and the toxicity observed entry is “GI upset”. Further, the “dose at which dose limiting toxicity occurred” value in data set [4] is reported as “more than 250 mg/kg”. For the same compound, the inhibits glycan processing in data set [5] is 15-20%. In addition, in data set [6], the inhibit glucosidase is given as 15-20%. Moreover, the “uptake by liver cells” value in data set [7] is given as “preferentially taken up by liver cells”.
